In patent US9556217B2, “Amphiphilic compounds” (WISCONSIN ALUMNI RESEARCH FOUNDATION, priority 2012, dated 2017):

Columns and labels:
[1] = target: T1, CMP-Sia fusion protein bearing green fluorescent protein (GFP) (Mus musculus, UniProt Q61420); test: CMP-Sia-GFP fusion solubilization (fluorescence); details: 1 hr at 4° C., total fluorescence
T1 construct: made in house; host or cells: Saccharomyces cerevisiae FGY217
Experimental: The favorable MelB extraction performance of GDN led to the examination of this amphiphile for extraction of other IMPs. […] DDM and GDN were used to extract a CMP-Sia fusion protein bearing green fluorescent protein (GFP) at the C-terminus, after expression in Saccharomyces cerevisiae; the amount of solubilized protein was estimated by total fluorescence. GDN (2 wt %), DDM (1 wt %) and OG (1 wt %) gave ˜70%, ˜80% and ˜50% extraction yields, respectively.
The procedure was performed according to the protocol reported by Chae and coworkers (Nat. Methods 2010, 7, 1003-1008).
CMP-Sia was expressed as a fusion protein with a C-terminal GFP in FGY217 Saccharomyces cerevisiae cells. Cell lysis was conducted by using a cell disrupter (Constant Systems) and the protein samples were subjected to centrifugation at 15,000 g for 10 mins to remove unbroken cells and debris. Subsequently, the membranes were harvested by ultracentrifugation at 150,000 g for 45 min. The membranes were resuspended in 50 mM Tris-HCl (pH 7.6), 1 mM EDTA, 0.6 M sorbitol and the protein concentration was estimated using a BCA kit (Pierce). The membranes were incubated with OG or DDM at 1.0%, or GDN at 2.0% for 1 hr at 4° C. A fluorescence value was measured for each sample before and after ultracentrifugation at 150,000 g for 1 h. The solubilization efficiency was calculated via the fluorescence measurements of the soluble supernatant/the total sample.

[2] = system: leucine transporter (LeuT); test: LeuT functional assay ([3H]-Leu binding, SPA); type: biochemical, Aquifex aeolicus; details: CMC+0.04 wt % or CMC+0.2 wt %
Experimental: The new amphiphiles were then evaluated for the ability to maintain the leucine transporter (LeuT) from Aquifex aeolicus in a functional state (Quick and Javitch, Proc. Natl. Acad. Sci. USA 2007, 104, 3603-3608). The transporter was initially extracted with DDM and then diluted with amphiphile-containing solutions to generate amphiphile concentration of CMC+0.04 wt % or CMC+0.2 wt %. At both concentrations, GDN was very effective at maintaining LeuT activity, as indicated by binding of radiolabeled leucine, with preservation of >95% of initial activity after 12 days (FIG. 5c).
LeuT functionality was measured according to the procedure reported by Chae and coworkers (Nat. Methods 2010, 7, 1003-1008).
LeuT activity was measured according to the reported procedure (Chae et al., J. Am. Chem. Soc. 2010, 132, 16750-16752). […] Following protein storage at RT, at the indicated time points, samples were centrifuged and the protein concentration was assessed by determining absorbance at 280 nm. Concomitantly, for the corresponding time points, [^3H]-Leu binding was measured using scintillation proximity assay (SPA). […] Binding was assessed in 200 mM NaCl in the presence of tested compounds at the above-mentioned concentrations, and monitored using MicroBeta liquid scintillation counter (PerkinElmer).

[3] = system: R. capsulatus LHI-RC superassembly; test: R. capsulatus LHI-RC superassembly stability (A875/A680); parameters: species or system Rhodobacter capsulatus; details: CMC+0.04 wt %, RT, 875 nm/680 nm absorbance ratio
Experimental: Next a more challenging system, the photosynthetic superassembly from Rhodobacter capsulatus (Laible et al., Biochemistry 2003, 42, 1718-1730), was analyzed. This photosynthetic superassembly contains the light harvesting I (LHI) complex and the reaction center (RC) complex. The superassembly contains >30 protein molecules; integrity can be assessed based on the 875 nm/680 nm absorbance ratio (Chae et al., ChemBioChem 2008, 9, 1706-1709). The superassembly was extracted from the native membrane with 1.0 wt % DDM and purified with DDM at its CMC (0.009 wt %). […]
The stability of R. capsulatus superassembly was assessed according to the protocol described by Chae and coworkers (J. Am. Chem. Soc. 2010, 132, 16750-16752).
For the stability assay, DDM-solubilized material was transferred into a new microcentrifuge tube containing Ni-NTA resin (Qiagen, Inc.; Valencia, Calif.; pre-equilibrated and stored in an equal volume of buffer containing 10 mM Tris, pH 7.8, and 100 mM NaCl). After a 1 h incubation at 4° C. for binding, the resins were washed twice with 0.5 mL of binding buffer (a pH 7.8 Tris solution containing DDM at 1×CMC) and eluted three times with 0.20 mL elution buffer aliquots containing 1 M imidazole (otherwise, this buffer was identical to binding buffer; the pH of each solution was readjusted to pH=7.8). […]

SMILES: CCCCCCCCCCCCO[C@@H]1O[C@H](CO)[C@@H](O[C@H]2O[C@H](CO)[C@@H](O)[C@H](O)[C@H]2O)[C@H](O)[C@H]1O [DDM, dodecyl-β-D-maltoside, reference compound]
- CMP-Sia-GFP extraction yield ([1]; 1 wt %): ~80%
- Maintaining LeuT activity over 12 days ([2]; RT): lost significant activity

SMILES: C[C@@H]1CC[C@@]2(OC1)O[C@H]1C[C@H]3[C@@H]4CC=C5C[C@@H](OCCC(CO[C@@H]6OC(CO)[C@@H](O[C@H]7OC(CO)[C@@H](O)C(O)C7O)C(O)C6O)CO[C@@H]6OC(CO)[C@@H](O[C@H]7OC(CO)[C@@H](O)C(O)C7O)C(O)C6O)CC[C@]5(C)[C@H]4CC[C@]3(C)[C@@H]1[C@@H]2C (stereo partly drawn) [GDN, glyco-diosgenin]
- CMP-Sia-GFP extraction yield ([1]; 2 wt %): ~70%
- LHI-RC superassembly stability over 20 days relative to DDM or OG [3]: substantially more stable
- LeuT activity preserved, % of initial activity ([2]; after 12 days at RT): > 95%

SMILES: CO[C@@H]1CC[C@@]2(C)[C@H](CC[C@@H]3[C@@H]2CC[C@]2(C)[C@@H]([C@H](C)CCCOCC(C)(CO[C@@H]4OC(CO)C(O[C@@H]5OC(CO)[C@@H](O)[C@H](O)C5O)[C@@H](O)C4O)CO[C@@H]4OC(CO)[C@@H](O[C@H]5OC(CO)[C@@H](O)[C@H](O)C5O)[C@H](O)C4O)CC[C@@H]32)C1 (stereo partly drawn) [GLC-2]
- LHI-RC superassembly stability over 20 days relative to DDM or OG [3]: substantially more stable
